Assay results as given in patent US6984496B2, “Vitro assay for testing gabapentinoid activity” (Warner-Lambert Company, priority 2001, dated 2006).
Ends that are not written are not given here.

Experiments:
[1] = test system: NK1 mediated Elk-1 transcription; experiment: NK1 mediated Elk-1 luciferase reporter assay in CHO-NK-1 cells stimulated with substance P; conditions: substance P 20 nM, 4 hours
Method: CHO-NK-1 cells were seeded to plates and grown to confluency overnight. Lipofectamine transfection was performed on the confluent cells to insert Elk-1 and luciferase vectors necessary for a MAP kinase dependent reporter system. Prior to transfection, the cells were washed in OPTI media (Gibco). To each confluent well in a 24-well plate, 20 ng of Elk-1 and 200 ng of luciferase DNA vectors were added. In addition to the vectors, 1.5 μL of Lipofectamine Reagent (Gibco) and OPTI media (Gibco) were also added for a total transfection volume of 200 μL (a master mix was made prior to use). After a 3-hour incubation, the media was changed to F-12 growing media (500 μL/well) for an additional 3-hour incubation. After the second incubation, the media was changed again to DMEM (500 μL/well) for serum starvation and incubated overnight (all incubations at 37° C.).
In addition, lipofectamine transfection was performed on CHO-NK-1 confluent cells to insert a GAL4-Elk-1 fusion protein and luciferase vector using the methods described above.
The DMEM media was decanted off the plate, and the cells were washed with 500 μL of Kreb buffer. After the wash, 460 μL of Kreb buffer containing 2 mM sodium pyruvate was added to each well and incubated for 30 minutes at 37° C. Next, 20 μL of compound was added to each well at the desired concentration and incubated for another 30 minutes. […] Finally, the cells were stimulated with Substance-P (final concentration=20 nM), and the cells were incubated for 4 hours at 37° C. After the 4-hour incubation, the buffer was decanted off the plate, and the plate was washed twice with Dulbecco's-PBS. Cells were lysed with 100 μL per well of cell Lysis Buffer (Promega), and the plate was vortexed for 10 minutes. Finally, 10 μL of the cell lysate was transferred to a 96-well reader plate, and each well's luminescence was measured using a luminometer (the Promega Luciferase Reporter system was used).

[2] = test system: rat mGluR5 mediated Erk-2 phosphorylation; experiment: mGluR5 mediated Erk phosphorylation in CHO-mGluR5 cells, Western blot with anti-pErk antibody; format: cell-based
Method: . Products from treated cells were analyzed by Western blotting with anti-pErk antibody.
CHO cells engineered to express mGluR5 (CHO-mGluR5 cells) were plated in 12-well tissue culture plates at a density of 20,000 cells/well and grown for 24 hours, followed by further culturing in serum free medium for 16 hours. CHO-mGluR5 cells were incubated in Krebs buffer for 30 minutes at which time 1 mM sodium pyruvate and 10 μ/mL glutamic-pyruric transaminase was added. […] . […] Proteins in cell extracts were separated by SDS-PAGE and transferred to nitrocellulose membrane. The membrane was blocked overnight at 4° C. with 4% BSA in Tris-buffered saline containing 0.2% (v/v) Tween 20 (TBST). The membrane was then incubated for 1 hour at room temperature (RT) with antiphospho MAP kinase antibody (1:1000 dilution) in 1% BSA and TBST, then washed with TBST followed by incubation with antirabbit IgG HRP antibody. After a final wash with TBST, the membrane was visualized using enhanced chemiluminescence reagents.
Activation of Erk-1 and -2 by stimulating CHO-mGluR5 cells with 100 μM quisqualate was examined by using an antibody specific to phosphorylated Erk-1 and -2. As shown in FIG. 1 (Lane 1), there was little phosphorylated Erk-1 and -2 in unstimulated CHO cells. […] .

[3] = test system: PMA mediated Elk-1 transcription in IMR-32 cells; experiment: PMA mediated Elk-1 reporter assay in IMR-32 cells; conditions: 50 nM PMA
Method: (§2) PKC competent cells are stimulated with PMA, preferably in the range of 50 nM, to activate Erk-2. Activated Erk-2, as discussed above, activates Elk-1 which induces reporter gene expression. […] As above, cells may be incubated with the target compound before treatment with PMA.

[4] = test system: PMA mediated Erk-2 phosphorylation; experiment: PMA mediated Erk-2 phosphorylation in differentiated IMR-32 cells, Western blot; format: cell-based, human; conditions: 30 minutes preincubation, PMA stimulation
Method: […]. Differentiated IMR-32 cells were pretreated with indicated concentrations of gabapentin for 30 minutes and then stimulated with PMA for 10 minutes. Products from treated cells were analyzed by Western blotting with anti-pErk antibody.
IMR-32 cells were grown in MEM media (Gibco BRL, 11095-080), supplemented with 10% fetal bovine serum (Gibco BRL, 26140-087), 1% antibiotic-antimycotic (Gibco BRL, 15240-096), and 1% L-glutamine (Gibco BRL, 25030-032). Cells, grown to confluency, were differentiated for a period of 7 to 10 days, or longer, by adding 1 mM dibutyryl cAMP (Sigma D-0627) and 2.5 μM 5-bromo-2-deoxyuridine (Sigma B-9285) to the media. The differentiation media was fed continuously to cells until the cells were used in an experiment. Cells were divided into groups and preincubated for 30 minutes either in the presence or absence of indicated concentration of gabapentin then subsequently challenged with 50 nM PMA for […]. […]. Proteins in cell extracts were separated by SDS-PAGE and transferred to nitrocellulose membrane. The nitrocellulose membrane was blocked overnight at 4° C. with 4% BSA in Tris-buffered saline containing 0.2% (v/v) Tween 20 (TBST). The membrane was then incubated for 1 hour at RT with antiphospho MAP kinase antibody (1:1000 dilution) in 1% BSA and TBST, then washed with TBST followed by incubation with antirabbit IgG HRP antibody. […]

[5] = test system: PMA mediated Elk-1 transcription in CHO cells; experiment: PMA mediated Elk-1 reporter assay in CHO cells
Method: as §2

MAP kinase = MAP kinase activation in CHO-NK-1 cells, Western blot with activation-specific antibodies; format: cell-based, Chinese Hamster; conditions: 10 nM substance-P, data not shown
P38 = P38 activation in CHO-NK-1 cells, Western blot with activation-specific antibodies; format: cell-based, Chinese Hamster; conditions: 10 nM substance-P, data not shown
Description: (§1) Since P38 and Jun kinases are closely related to MAP kinase, the effects of substance-P on these kinases was examined.

Jun kinase = Jun kinase activation in CHO-NK-1 cells, Western blot with activation-specific antibodies; format: cell-based, Chinese Hamster; conditions: 10 nM substance-P, data not shown
Description: as §1

## O=C(NOCC1CC1)c1ccc(F)c(F)c1Nc1ccc(I)cc1Cl [PD 184352]
[1]
  inhibition of Elk-1 mediated luciferase activity elicited by substance P: completely inhibited
[2]; CHO-mGluR5 cells, data not shown
  effect on quisqualate activated Erk phosphorylation (positive control): block the effect of quisquolate

## NCC1(CC(=O)O)CCCCC1 [gabapentin, 1-(aminomethyl) cyclohexaneacetic acid]
[1]
  inhibition of Elk-1 mediated luciferase activity elicited by substance P: dose dependent inhibition
[2]; 100 μM compound preincubated 30 minutes, 100 μM quisqualate 5 minutes, CHO-mGluR5 cells
  reduction of quisqualate activated phosphorylated Erk-2: 50%
[2]; gabapentin treated CHO-mGluR5 cells, no quisqualate (Lane 3)
  phosphorylated Erk-1 and -2 in the absence of quisqualate: little or no phosphorylated Erk-1 and -2
[3]
  effect on PMA-induced Elk-1 reporter gene expression: dose-dependently decreased
[4]
  effect on PMA increased Erk-2 phosphorylation: dose-dependently blocked
[5]
  effect on PMA activated reporter gene activity: in a dose-dependent manner, reduced

## CC(C)C[C@H](CN)CC(=O)O [pregabalin]
[1]
  inhibition of Elk-1 mediated luciferase activity elicited by substance P: dose dependent inhibition

## substance-P: a tackykinin neuropeptide that acts through the NK1, NK2, and NK3 receptors (RPKPQQFFGLM-NH2; ends and bridges not checked; UniProt P20366 58-68, looked up)
MAP kinase
  activation of MAP kinase: significantly activated
P38
  activation of P38: no effect
Jun kinase
  activation of Jun kinase: no effect
